This is an account of results in patent US20060223117A1, “Novel splice variants of human epithelial sodium channel genes expressed in human taste tissue and uses thereof” (SENOMYX, INC., priority 2005, published 2006).

“Also recorded” adds a separate entry of the source.

One assay concerns perceived salt intensity. The experiment in a line: Senomyx human taste experiments, perceived salt intensity. The format is in vivo.
Assay [1] concerns intensity of sodium chloride. The note with it: humans; concentrations that specifically inhibit ENaC function; cited from earlier work.

Take `N=C(N)NC(=O)c1nc(Cl)c(N)nc1N` [amiloride]: the “effect on perceived salt intensity” value in the assay with perceived salt intensity (tested at levels 300-fold above IC50 values in oocytes) is “did not exhibit a significant effect; also recorded: did not demonstrate a significant effect”. For the same molecule, the “reduction of the intensity of sodium chloride” value in assay [1] was 15-20%.
As to `NC(=Nc1ccccc1)NC(=O)c1nc(Cl)c(N)nc1N` [phenamil], the “effect on perceived salt intensity” value with perceived salt intensity (tested at levels 3000-fold (printed: for benzamil) above IC50 values in oocytes) is recorded as “did not demonstrate a significant effect”; in the assay on perceived salt intensity (tested at levels 3000-fold (printed: for benzamil) above IC50 values in oocytes, listed as phenomil) it was “did not exhibit a significant effect”.
